In assay [1] the test system is PC-12 cells. Briefly: Survival/viability of serum-starved PC-12 cells (MTS cell proliferation assay). The format is cell-based. How it is done: (§1) Serum-starvation reduced survival of SH-SY5Y cells and PC-12 cells. […] Treatment of this cell line with 300 nM of NP-6AK agonist led to increased cell viability by over 30% relative to treatment with native ligand of AT2R Ang II (300 nM). […] AT2R activation by NP-6AK agonist promotes cell survival whereas AT2R activation by other ligands are harmful to it.

The test system of assay [2] is MCL-1. Briefly: MCL-1 expression in human vascular smooth muscle cells (CAVSMCs). The format is cell-based. Particulars: for MCL-1 expression (in words): human CAVSMCs, FIG. 1B; for effect of AT2R antagonist on NP-6AK-mediated MCL-1 upregulation: antagonist with NP-6AK agonist. The source says:
(§2) Cells treated with the NP-6AK agonist generated higher MCL-1 upregulation relative to those treated with a partial agonist such as CGP42112A.

The test system of assay [3] is MCL-1. Briefly: MCL-1 expression in HL-1 cardiomyocytes. The format is cell-based, mouse. Particulars: for MCL-1 expression (in words): female mouse HL-1 cardiomyocytes, FIG. 1A; for effect of AT2R antagonist on NP-6AK-mediated MCL-1 upregulation: antagonist with NP-6AK agonist.
Text: as §2

The test system of assay [4] is mouse HL-1 cardiomyocytes. Briefly: Cell index (CI) cell survival, Xcelligence Real-Time Cell Analyzer, HL-1 cells. The format is cell-based. Particulars: for increase in cell index (CI): serum starved HL-1 cells. The procedure: (§3) Thus, an NP-6AK agonist comprising the sequence Lys-Pro-Leu-Lys-Pro-Trp (SEQ ID NO. 2) promoted cell survival across mouse HL-1 cardiomyocytes and human smooth vascular muscle cells by acting through AT2R activation. Cell survival was assessed by measurement of cell index (CI) using a Xcelligence™ Real-Time Cell Analyzer (Westburg B V, Leusden, N L) to quantitatively determine the effect of different treatments on cell survival, adhesion, and proliferation. […] CGP42112A and the NP-6AK agonist (300 nM) increased CI of serum starved HL-1 cells in the order CGP42112A (≥14%), NP-6AK (≥25%). Increase in CI is a direct effect of AT2R activation. This was verified by addition of an AT2R antagonist, PD123319 (Sigma-Aldrich, Co. LLC, St. Louis, Mo.). In the presence of this antagonist, the cell survival otherwise observed using the NP-6AK agonist was not present.

Assay [5] deals with SH-SY5Y cells. Description: Survival of serum-starved SH-SY5Y cells (MTS cell proliferation assay). The format is cell-based. The note with it: serum starvation. How it is done:
as §1

Assay [6] concerns human smooth vascular muscle cells. Description: Cell index (CI) cell survival, Xcelligence Real-Time Cell Analyzer, human smooth vascular muscle cells. The format is cell-based. How it is done:
as §3

The subject of assay [7] is Zucker Obese (ZO) rats. Briefly: Zucker Obese rat diabetic/cardiovascular model, 2 weeks subcutaneous treatment. The format is in vivo. How it is done:
Zucker Obese (ZO) rats (Charles River Laboratories, Inc., Wilmington, Mass.), a diabetic animal model displaying signs of cardiovascular disease were treated for 2 weeks (dose of 0.9 mg/kg/day) via subcutaneous injection with an NP-6AK agonist and assessed for several markers of cardiovascular health including blood markers and structural parameters of the heart. Controls were ZO rats that received saline.

In assay [8] the test system is SH-SY5Y cells. Briefly: Neurite elongation in SH-SY5Y cells. The format is cell-based. Particulars: FIG. 3A.
Assay [9] has as its system MCL-1. Description: MCL-1 expression in SH-SY5Y cells (immunofluorescence staining). The format is cell-based. The source says:
The SH-SY5Y cell line is a neuronal cell line with both dopaminergic and adrenergic receptors.

The subject of assay [10] is primary murine embryonic cortical neurons. Briefly: Neuroprotection of primary cortical neurons under nutrient deprivation. The format is cell-based. The note with it: 300 nm agonist; glucose-free Locke's medium; 14 DIV; p<0.05. How it is done:
For nutrient deprivation, primary cortical neurons (14 DIV) were incubated in glucose-free Locke's medium with or without […] NP-6AK agonist.
Ex vivo neurons were obtained and treated with an NP-6AK agonist in different conditions to assess neuroprotective properties. Normal primary murine embryonic cortical neurons in culture (14 days in vitro) were challenged with nutrient deprivation by incubation in glucose-free Locke's medium (Schnapf et al. (1990)). These cultures were then supplemented with 300 nM NP-6AK agonist or no NP-6AK agonist.

Setting [11] is: 0.9 mg/kg/day s.c., vs saline ZO rats.

Entries after “also recorded” stand apart in the source; their conditions may differ. Where no end group is shown, it is not given here.

Turning to CGP42112A, in assay [1] (MTS assay), the “cell survival relative to cells treated with AT2R antagonist PD123319” value is reported as “more detrimental”. The “MCL-1 expression (in words)” value in assay [2] and in assay [3] was “unable to increase MCL-1” each time. For the same molecule, the “increase in cell index (CI)” value in assay [4] (300 nM) is reported as ≥ 14%.
For AngII: native ligand of AT2R, the “cell survival relative to cells treated with AT2R antagonist PD123319” value in [1] (MTS assay) is “more detrimental”.
In the case of “KPLKPW [NP-6AK agonist, AT2R agonist hexapeptide of the NP-6AK class]”, the survival rate entry in assay [5] was “higher survival rate”. The “survival and proliferation compared with CGP42112A (300 nM)” value in assay [6] was “significantly better survival and more proliferation”. In [1] (MTS assay), the “increased survival relative to treatment with 300 nM CGP42112A” value is “over 70%”. Besides, the survival rate result in assay [1] (serum starvation) is “higher survival rate”. In addition, in [7] (setting [11]), the “increased HDL on average” value is listed as 12%, the “reduced triglycerides (fasting plasma)” value is listed as ~50%, the “reduced urine N-acetyl-beta-A-glucosaminidase” value is ~60% and the reduced urine protein is ~68%. Also, in [7] (male ZO rat, 0.9 mg/kg/day), the “Echocardiography/Strain analysis E/E” value is on record as 26 ± 2.1, the “Echocardiography/Strain analysis MPI” value came to 0.389 ± 0.02, the “Plasma Profile HDL” value amounted to 73 ± 2.8 mg/dL and the “Plasma Profile Triglycerides” value is on record as 610 ± 109 mg/dL. Further, in assay [7] (male ZO rat, 0.9 mg/kg/day), the “Urine Profile NA6” value was 10.9 ± 1.5 mg/dL and the “Urine Profile Protein” value is recorded as 445 ± 86.4 mg/dL. In addition, in assay [7] (male ZO rat, 0.9 mg/kg/day, endocardium, short axis view), the “Echocardiography/Strain analysis Circumferential Strain” value is −26.11 ± 2.47. In addition, the “higher MCL-1 expression” value in assay [2] (300 nM, human smooth vascular muscle cells, FIG. 1) is given as 22%. Also, in assay [2], the “MCL-1 expression (in words)” value is “increases MCL-1 expression”. The neurite elongation entry in [8] was “promotes neurite elongation”. In addition, the “increase in MCL-1 expression” value in assay [9] (300 nM, agonist alone, 24 hours, FIG. 2) is 2 fold. Besides, in [9] (agonist added after Rapamycin, FIG. 3B), the “MCL-1 expression after treatment with Rapamycin” value was “reverses rapamycin-mediated suppression of MCL-1 expression; also recorded: able to recover MCL-1 expression”. The “increased activity compared with negative controls” value in assay [10] was 60%. Besides, the “higher MCL-1 expression” value in assay [3] (300 nM, cardiomyocytes, FIG. 1) is on record as 45%. Further, in [3], the “MCL-1 expression (in words)” value is “increases MCL-1 expression”. For the same molecule, the “survival and proliferation compared with CGP42112A (300 nM)” value in [4] (300 nM, cell index) is “significantly better survival and more proliferation”. Further, the “increase in cell index (CI)” value in assay [4] (300 nM) is ≥ 25%.
In the case of `Cc1cc(Cn2cnc3c2C[C@@H](C(=O)O)N(C(=O)C(c2ccccc2)c2ccccc2)C3)ccc1N(C)C` [PD123319], the “protective effects of the NP-6AK agonist when treated with AT2R antagonist” value in [1] (PC-12 cells) is reported as “the protective effects of the NP-6AK agonist were lost”. Also, the “effect of AT2R antagonist on NP-6AK-mediated MCL-1 upregulation” value is “MCL-1 upregulation was not observed” in [2], “prevents NP-6AK-mediated up regulation of MCL-1” in [2] (listed as PD), “MCL-1 upregulation was not observed” in assay [3] and “prevents NP-6AK-mediated up regulation of MCL-1” in [3] (listed as PD). Further, in assay [4] (antagonist added to NP-6AK agonist treatment), the “cell survival otherwise observed using the NP-6AK agonist, in presence of the AT2R antagonist” value was “not present”.

For the origin of these results see patent publication US10105411B2, “Compositions and methods for modulating AT2R activity” (Novopyxis, Inc., priority 2014, dated 2018).
